Patent JP2005314435A, “循環器疾患治療剤および健康食品” (Individual, priority 2000, dated 2002)

Legend:
Type in all cases: in vivo
[1] = system: spontaneously hypertensive rat [自然発症高血圧ラット(SHR)]; assay: Example 1: blood pressure lowering and body weight in spontaneously hypertensive rats (1% saline drinking water)
[2] = system: WKY rat (Wistar-Kyoto rat) [WKYラット(Wistar-Kyoto rat)]; assay: Example 1: blood pressure and body weight in normotensive WKY rats (1% saline drinking water)
[3] = system: spontaneously stroke-developing rat [自然発症脳卒中ラット(SHR-SP)]; assay: Example 2: blood pressure lowering, body weight and mortality in stroke-prone rats (1% saline drinking water); settings: for blood pressure (systolic) / body weight: 1.8% in feed
[4] = system: SHR-SP rat, neurological symptoms [SHR−SPに対する神経症状]; assay: Example 2: delay of neurological symptom onset and life prolongation in SHR-SP (1% saline drinking water); settings: for mean number of days from onset to death / mean number of days to death / mean number of days to onset of neurological symptoms: 1.8% in feed
[5] = system: spontaneously stroke-developing rat [自然発症脳卒中ラット (SHR−SP)]; assay: Example 3: blood pressure lowering and body weight in SHR-SP given 0.003% L-NAME drinking water
[6] = system: SHR-SP rat, neurological symptoms [SHR−SPに対する神経症状]; assay: Example 3: delay of neurological symptom onset, life prolongation and brain microvessel protection in SHR-SP given 0.003% L-NAME
[7] = FA 1.8% in feed until week 6, then normal feed, week 9
[8] = FA 1.8% in feed until week 6, then normal feed, week 12
[9] = FA 1.8% in feed, pre-value (week 0)
[10] = FA 2.7% in feed until week 6, then normal feed, week 9
[11] = FA 2.7% in feed until week 6, then normal feed, week 12
[12] = FA 2.7% in feed, pre-value (week 0)
[13] = WKY, FA 2.7% in feed until week 6, then normal feed, week 9
[14] = WKY, FA 2.7% in feed until week 6, then normal feed, week 12
[15] = WKY, FA 2.7% in feed, pre-value (week 0)
[16] = FA 2.7% in feed, 8-week observation
[17] = FA 2.7% in feed, n = 6, 8-week observation
[18] = n = 7, listed as FA−Arg塩, L−アルギニン塩
[19] = FA-Arg 1.8% in feed, pre-value (week 0)
[20] = FA-Arg 1.8% in feed, 8-week observation
[21] = FA-Arg 1.8% in feed, n = 7, 8-week observation

Compound: COc1cc(C=CC(=O)O)ccc1O [FA, フェルラ酸]
- deaths ([1]; FA 1.8% group, at week 9-10 (after change to normal feed at week 6)): 1 cases
- blood pressure (systolic) [1, 7]: 225.6 ±6.1 mmHg
- body weight [1, 7]: 293.8 ± 5.0 g
- blood pressure (systolic) [1, 8]: 233.6 ± 6.0 mmHg
- body weight [1, 8]: 307.0 ± 6.7 g
- blood pressure (systolic) [1, 9]: 128.5 ±2.2 mmHg
- body weight [1, 9]: 135.5 ± 1.8 g
- blood pressure (systolic) ([1]; FA 1.8% in feed, week 6): 201.1 ±6.2 mmHg
- body weight ([1]; FA 1.8% in feed, week 6): 264.8 ± 4.1 g
- blood pressure (systolic) [1, 10]: 211.8 ±3.1 mmHg
- body weight [1, 10]: 292.1 ± 3.0 g
- blood pressure (systolic) [1, 11]: 217.7 ± 4.7 mmHg
- body weight [1, 11]: 309.4 ± 3.1 g
- blood pressure (systolic) [1, 12]: 135.4 ±2.7 mmHg
- body weight [1, 12]: 136.8 ± 1.5 g
- blood pressure (systolic) ([1]; FA 2.7% in feed, week 6): 192.0 ±2.5 mmHg
- body weight ([1]; FA 2.7% in feed, week 6): 239.5 ± 3.4 g
- suppression of body weight (in words) ([1]; FA groups): 体重の有意な抑制がみられた
- blood pressure lowering effect (in words) ([1]; during 6 weeks of administration): 用量依存的に有意な降圧作用を示した
- blood pressure (systolic) [2, 13]: 124.0 ±3.7 mmHg
- body weight [2, 13]: 310.1 ± 7.3 g
- blood pressure (systolic) [2, 14]: 135.5 ± 2.8 mmHg
- body weight [2, 14]: 349.2 ± 12.0 g
- blood pressure (systolic) [2, 15]: 99.5 ±3.1 mmHg
- body weight [2, 15]: 122.2 ± 2.8 g
- blood pressure (systolic) ([2]; WKY, FA 2.7% in feed, week 6): 128.4 ±4.7 mmHg
- body weight ([2]; WKY, FA 2.7% in feed, week 6): 263.2 ± 4.3 g
- suppression of body weight (in words) ([2]; WKY, FA group): 体重の有意な抑制がみられた
- blood pressure lowering effect (in words) ([2]; normotensive WKY rats): 降圧作用を示さず
- blood pressure (systolic) ([3]; pre-value (week 0)): 124.5 ±5.5 mmHg
- body weight ([3]; pre-value (week 0)): 94.0 ± 2.3 g
- blood pressure (systolic) ([3]; week 2): 150.2 ±6.1 mmHg
- body weight ([3]; week 2): 148.8 ± 3.3 g
- blood pressure (systolic) ([3]; week 4): 203.4 ±4.6 mmHg
- body weight ([3]; week 4): 198.2 ± 3.1 g
- body weight ([3]; week 7): 233.0 ± 3.8 g
- blood pressure lowering effect (in words) ([3]; from week 2 on, versus control without test substance): 有意な降圧効果が観察された
- mean number of days from onset to death ([4]; n = 7): 10.4 ± 0.6 days
- mean number of days to death ([4]; n = 7): 70.0 ± 1.8 days
- mean number of days to onset of neurological symptoms ([4]; n = 7): 59.6 ± 1.4 days
- delay of neurological symptom onset and life prolongation (in words) ([4]; versus control without test substance): 明らかな神経症状発症遅延効果および延命効果を示している
- blood pressure (systolic) [5, 12]: 115.0 ±4.7 mmHg
- body weight [5, 12]: 107.7 ± 1.9 g
- blood pressure (systolic) ([5]; FA 2.7% in feed, week 2): 141.4 ±3.1 mmHg
- body weight ([5]; FA 2.7% in feed, week 2): 137.6 ± 3.0 g
- blood pressure (systolic) ([5]; FA 2.7% in feed, week 4): 185.1± 1.9 mmHg
- body weight ([5]; FA 2.7% in feed, week 4): 175.9 ± 3.2 g
- blood pressure (systolic) ([5]; FA 2.7% in feed, week 6): 203.1±7.5 mmHg
- body weight ([5]; FA 2.7% in feed, week 6): 195.1 ± 5.0 g
- blood pressure (systolic) ([5]; FA 2.7% in feed, week 8): 207.8± 6.0 mmHg
- body weight ([5]; FA 2.7% in feed, week 8): 213.5 ± 7.4 g
- preventive effect (in words) ([6]; 8-week observation, versus control): 明らかな予防効果が見られた
- animals that died / animals used [6, 16]: 0/6
- animals with onset of neurological symptoms / animals used [6, 16]: 0/6
- mean number of days to death [6, 17]: 56.0 ± 0.0 days
- mean number of days to onset of neurological symptoms [6, 17]: 56.0 ± 0.0 days
- mean number of days to onset of neurological symptoms or death (in words) ([6]; from start of administration, versus control): 有意に延長していた
- protection of brain microvessels (in words) ([6]; order FA group, FA-Arg salt group): FA投与群、FA−Arg塩投与群の順で脳内微細血管が保護されたことが示唆された

Compound: COc1cc(C=CC(=O)O)ccc1O [FA−Arg, フェルラ酸−L−アルギニン塩]
- blood pressure (systolic) ([3]; pre-value (week 0), L−アルギニン塩): 122.8 ±4.6 mmHg
- body weight ([3]; pre-value (week 0), L−アルギニン塩): 103.2 ± 3.2 g
- blood pressure (systolic) ([3]; week 2, L−アルギニン塩): 155.2 ±4.6 mmHg
- body weight ([3]; week 2, L−アルギニン塩): 156.7 ± 3.8 g
- blood pressure (systolic) ([3]; week 4, L−アルギニン塩): 196.1 ± 5.8 mmHg
- body weight ([3]; week 4, L−アルギニン塩): 204.4 ± 4.5 g
- body weight ([3]; week 7, L−アルギニン塩): 226.4 ± 10.9 g
- mean number of days from onset to death [4, 18]: 8.2 ± 2.2 days
- mean number of days to death [4, 18]: 73.9 ± 4.7 days
- mean number of days to onset of neurological symptoms [4, 18]: 65.4 ± 4.8 days
- deaths ([5]; FA-Arg 1.8% in feed, at week 7): 1 cases
- deaths ([5]; FA-Arg 1.8% in feed, at week 8): 1 cases
- blood pressure (systolic) [5, 19]: 116.0 ±4.3 mmHg
- body weight [5, 19]: 102.7 ± 2.9 g
- blood pressure (systolic) ([5]; FA-Arg 1.8% in feed, week 2): 146.4 ±5.0 mmHg
- body weight ([5]; FA-Arg 1.8% in feed, week 2): 179.9 ± 4.0 g
- blood pressure (systolic) ([5]; FA-Arg 1.8% in feed, week 4): 183.6± 5.7 mmHg
- body weight ([5]; FA-Arg 1.8% in feed, week 4): 225.7 ± 3.0 g
- blood pressure (systolic) ([5]; FA-Arg 1.8% in feed, week 6): 205.7±7.7 mmHg
- body weight ([5]; FA-Arg 1.8% in feed, week 6): 244.3 ± 4.2 g
- blood pressure (systolic) ([5]; FA-Arg 1.8% in feed, week 8): 221.8± 7.1 mmHg
- body weight ([5]; FA-Arg 1.8% in feed, week 8): 263.6 ± 6.9 g
- animals that died / animals used [6, 20]: 2/7
- animals with onset of neurological symptoms / animals used [6, 20]: 2/7
- mean number of days to death [6, 21]: 55.0 ± 1.0 days
- mean number of days to onset of neurological symptoms [6, 21]: 54.9 ± 1.1 days
